Reference: patent publication US7297714B2, “Inhibitors of cathepsin S” (IRM LLC, priority 2003, dated 2007)
pKi: −log10 of the molar value.

Experiments:
Format in all cases: biochemical
Cathepsin S = Cathepsin S (Homo sapiens, UniProt P25774); experiment: Cathepsin S inhibition assay (fluorogenic peptide substrate); settings: Cathepsin S inhibition constant; pH5.5; read-out: Ki Cat. S
Description: “Inhibition constant”, Ki, is the dissociation constant of the enzyme-inhibitor complex, or the reciprocal of the binding affinity of the inhibitor to the enzyme. For classical inhibition the value of Ki is much greater than the enzyme concentration and the Ki can be measured by monitoring the rate of reaction for a competitive substrate at multiple inhibitor concentrations. The inhibited rates are then fit by nonlinear regression to the following equation: […]
The assumption being made for the classical inhibition described above is that the free inhibitor concentration is equal to the total inhibitor concentration. For inhibitors that have Ki's that are approximately equal to the enzyme concentration [E], the assumption that the free inhibitor concentration is equal to the total inhibitor concentration is no longer valid and an alternative equation has to be fit for determination of the apparent inhibition constant, Ki^app using described methods (Kuzmic, P., K. C. Elrod, et al., Anal Biochem 2000, 286(1), 45-50):
(§1) The optimal substrate for cathepsin S, acetyl-histidine-proline-valine-lysine-amino carbamoyl coumarin, was identified from screening a combinatorial library of fluorogenic peptide substrates (Harris, J. L., B. J. Backes, et al., Proc Natl Acad Sci U S A 2000, 97(14), 7754-9). Kinetic measurements are performed in a total reaction volume of 30 μl in 384-well microtiter plates. Cathepsin S, at a final concentration of 0.3-3 nM (active site), is incubated with the compounds at twelve varying concentrations in a buffer containing 100 mM NaAc (pH5.5), 1 mM EDTA, 100 mM NaCl, 0.01% Brij-35 for 20 minutes at room temperature. Control reactions in the absence of inhibitor are performed in replicates of 24. The reactions are initiated by adding the substrate, acetyl-histidine-proline-valine-lysine-amino carbamoyl coumarin, to a final concentration of 50 μM. The rate of substrate hydrolysis is measured by monitoring the increase in fluorescence at an excitation wavelength of 380 nm and an emission wavelength of 450 nm that results from cleavage of the aniline bond in the substrate by the enzyme. The apparent inhibition constants for the compounds are determined from the enzyme progress curves (Kuzmic, P., K. C. Elrod, et al., Anal Biochem 2000, 286(1), 45-50) and are then used to calculate the inhibition constants for competitive inhibitors.

Cathepsin B = Cathepsin B (Homo sapiens, UniProt P07858); experiment: Cathepsin B inhibition assay, selectivity for cathepsin S over cathepsin B; settings: ratio of cathepsin B inhibition constant to cathepsin S inhibition constant
Procedure: as §1, with “cathepsin B,” for “cathepsin S,”, “Sci US” for “Sci U S”, “Cathepsin B,” for “Cathepsin S,”, “of 1.5” for “of 0.3-3”, “of 10” for “of 50”
(§2) Selectivity for cathepsin S in the presence of cathepsin isozymes was determined by the ratio of the cathepsin isozyme inhibition constant of a compound of the present invention to the cathepsin S inhibition constant of the same compound. Preferred compounds of the present invention selective for cathepsin S have ratios of greater than 10. More preferred compounds of the present invention selective for cathepsin S have ratios of greater than 100. Most preferred compounds of the present invention selective for cathepsin S have ratios of greater than 1000.

Cathepsin L = Cathepsin L (Homo sapiens, UniProt P07711); experiment: Cathepsin L inhibition assay, selectivity for cathepsin S over cathepsin L; settings: ratio of cathepsin L inhibition constant to cathepsin S inhibition constant
Cathepsin L, sequence (P07711 114-333, species assumed): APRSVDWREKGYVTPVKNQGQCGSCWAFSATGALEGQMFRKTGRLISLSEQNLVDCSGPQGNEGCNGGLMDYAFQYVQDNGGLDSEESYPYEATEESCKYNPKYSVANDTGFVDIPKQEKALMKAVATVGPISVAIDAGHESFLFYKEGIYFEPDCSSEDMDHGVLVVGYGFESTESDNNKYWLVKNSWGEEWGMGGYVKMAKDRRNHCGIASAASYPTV
Procedure: (§3) The optimal substrate for cathepsin L, acetyl-histidine-lysine-phenylalanine-lysine-amino carbamoyl coumarin, was identified from screening a combinatorial library of fluorogenic peptide substrates (Harris, J. L., B. J. Backes, et al.; Proc Natl Acad Sci USA 2000, 97(14), 7754-9). Kinetic measurements are performed in a total reaction volume of 30 μl in 384-well microtiter plates. Cathepsin L, at a final concentration of 0.1 nM (active site), is incubated with the compounds at twelve varying concentrations in a buffer containing 100 mM NaAc (pH5.5), 1 mM EDTA, 100 mM NaCl, 0.01% Brij-35 for 20 minutes at room temperature. Control reactions in the absence of inhibitor are performed in replicates of 24. The reactions are initiated by adding the substrate, acetyl-histidine-lysine-phenylalanine-lysine-amino carbamoyl coumarin, to a final concentration of 20 μM. The rate of substrate hydrolysis is measured by monitoring the increase in fluorescence at an excitation wavelength of 380 nm and an emission wavelength of 450 nm that results from cleavage of the aniline bond in the substrate by the enzyme. The apparent inhibition constants for the compounds are determined from the enzyme progress curves (Kuzmic, P., K. C. Elrod, et al., Anal Biochem 2000, 286(1), 45-50) and are then used to calculate the inhibition constants for competitive inhibitors.
as §2

Cathepsin K = biological target: T1, Cathepsin K (Homo sapiens, UniProt P43235); experiment: Cathepsin K inhibition assay, selectivity for cathepsin S over cathepsin K; settings: ratio of cathepsin K inhibition constant to cathepsin S inhibition constant
T1 sequence (P43235 115-329): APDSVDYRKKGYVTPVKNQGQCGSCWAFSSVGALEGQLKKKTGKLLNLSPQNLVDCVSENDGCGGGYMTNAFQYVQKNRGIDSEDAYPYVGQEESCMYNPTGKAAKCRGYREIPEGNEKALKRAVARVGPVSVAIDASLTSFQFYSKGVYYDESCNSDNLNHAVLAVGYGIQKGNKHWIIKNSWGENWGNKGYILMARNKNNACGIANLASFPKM
Procedure: as §3, with “cathepsin K, acetyl-lysine-histidine-proline-lysine-amino” for “cathepsin L, acetyl-histidine-lysine-phenylalanine-lysine-amino”, “et al.,” for “et al.;”, “Cathepsin K,” for “Cathepsin L,”, “of 3.5” for “of 0.1”, “substrate, acetyl-lysine-histidine-proline-lysine-amino” for “substrate, acetyl-histidine-lysine-phenylalanine-lysine-amino”, “of 40” for “of 20”
as §2

Cathepsin S, sequence (P25774 115-331, species assumed): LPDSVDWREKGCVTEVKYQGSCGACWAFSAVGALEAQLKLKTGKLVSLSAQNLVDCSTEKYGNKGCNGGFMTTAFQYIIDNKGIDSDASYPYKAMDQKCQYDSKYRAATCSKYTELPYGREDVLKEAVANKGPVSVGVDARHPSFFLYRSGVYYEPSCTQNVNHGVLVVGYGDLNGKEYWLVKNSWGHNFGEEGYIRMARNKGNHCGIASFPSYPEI

| SMILES | pKi (Cathepsin S) | Selectivity for Cat. S over Cat. B (Cathepsin B) | Selectivity for Cat. S over Cat. L (Cathepsin L) | Selectivity for Cat. S over Cat. K (Cathepsin K) |
| --- | --- | --- | --- | --- |
| CCOC1OC(=O)C[C@@H]1NC(=O)[C@H](CC1CCCC1)NC(=O)c1ccc(-c2cccc(F)c2)o1 (stereo partly drawn) [Example 12, (3S)-[3-Cyclopentyl-(2S)-{[5-(3-fluoro-phenyl)-furan-2-carbonyl]-amino}propionylamino]-2-ethoxy-5-oxo-tetrahydrofuran] | > 7.00 | ++ (++, >100) | ++ (++, >100) | + (+, >10) |
| CCO[C@@H]1OC(=O)C[C@@H]1NC(=O)[C@H](CC(C)(C)C)NC(=O)OC(C)(C)C [Example 13, (3S)-[(2S)-t-butoxycarbonylamino-4,4-dimethyl-pentanoylamino]-(2R)-ethoxy-5-oxo-tetrahydrofuran] | > 6.00 | ++ (++, >100) | + (+, >10) | – |
| COC1OC(=O)C[C@@H]1NC(=O)[C@H](CC1CCCCC1)NC(=O)c1ccc(-c2cccc(F)c2)o1 (stereo partly drawn) [Example 16, (3S)-[3-Cyclohexyl-(2S)-{[5-(3-fluoro-phenyl)-furan-2-carbonyl]-amino}propionylamino]-2-methoxy-5-oxo-tetrahydrofuran] | > 6.00 | + (+, >10) | + (+, >10) | + (+, >10) |
| O=C1C[C@H](NC(=O)[C@H](CC2CCCC2)NC(=O)OC2CCOCC2)C(O)O1 (stereo partly drawn) [Example 20, (3S)-(3-Cyclopentyl-(2S)-(tetrahydro-pyran-4-yloxycarbonylamino)-propionylamino)-4-oxo-butyric acid] | > 7.00 | +++ (+++, >1000) | ++ (++, >100) | ++ (++, >100) |
| O=C1C[C@H](NC(=O)[C@H](CC2CC2)NC(=O)C2CC2)C(O)O1 (stereo partly drawn) [Example 21, (3S)-(3-Cyclopropyl-(2S)-(cyclopropylcarbonylamino)-propionylamino)-4-oxo-butyric acid] | > 7.00 | ++ (++, >100) | ++ (++, >100) | + (+, >10) |
| CC(C)(C)C[C@H](NC(=O)C1CC1)C(=O)N[C@H]1CC(=O)OC1O (stereo partly drawn) [Example 22, (3S)-((2S)-(cyclopropylcarbonylamino)-4,4-dimethyl-pentanoylamino)-4-oxo-butyric acid] | > 7.00 | +++ (+++, >1000) | +++ (+++, >1000) | + (+, >10) |
| O=C1C[C@H](NC(=O)[C@H](CC2CCCC2)NC(=O)c2ccc(-c3cccc(C(F)(F)F)c3)o2)C(O)O1 (stereo partly drawn) [Example 23, (3S)-(3-Cyclopentyl-(2S)-{[5-(3-trifluoromethyl-phenyl)-furan-2-carbonyl]-amino}-propionylamino)-4-oxo-butyric acid] | > 7.00 | +++ (+++, >1000) | +++ (+++, >1000) | ++ (++, >100) |
| O=C1C[C@H](NC(=O)[C@H](CC2CCCC2)NC(=O)c2cccc(C(F)(F)F)c2)C(O)O1 (stereo partly drawn) [Example 24, (3S)-(3-Cyclopentyl-(2S)-(3-trifluoromethylphenyl-carbonylamino)-propionylamino)-4-oxo-butyric acid] | > 7.00 | +++ (+++, >1000) | + (+, >10) | ++ (++, >100) |

Results, then the molecule that gave them:

| pKi (Cathepsin S) | Selectivity for Cat. S over Cat. B (Cathepsin B) | Selectivity for Cat. S over Cat. L (Cathepsin L) | Selectivity for Cat. S over Cat. K (Cathepsin K) | SMILES |
| --- | --- | --- | --- | --- |
| > 7.00 | +++ (+++, >1000) | ++ (++, >100) | ++ (++, >100) | O=C1C[C@H](NC(=O)[C@H](CC2CCCCC2)NC(=O)c2ccc(-c3cccc(F)c3)o2)C(O)O1 (mixture of isomers) [Example 15, (3S)-(3-Cyclohexyl-(2S)-{[5-(3-fluoro-phenyl)-furan-2-carbonyl]-amino}-propionylamino)-4-oxo-butyric acid] |
| > 7.00 | + (+, >10) | – | + (+, >10) | O=C1C[C@H](NC(=O)[C@H](CC2CCCCC2)NC(=O)OCc2ccccc2)C(OCc2ccccc2)O1 (stereo partly drawn) [Example 11, (3S)-[(2S)-benzyloxycarbonylamino-3-cycohexyl-propionylamino]-2-benzyloxy-5-oxo-tetrahydrofuran] |
| > 7.00 | +++ (+++, >1000) | + (+, >10) | ++ (++, >100) | N#Cc1cccc(C(=O)N[C@@H](CC2CCCC2)C(=O)N[C@H]2CC(=O)OC2O)c1 (stereo partly drawn) [Example 18, (3S)-((2S)-(3-cyanophenyl-carbonylamino)-3-cyclopentyl-propionylamino)-4-oxo-butyric acid] |
| > 7.00 | +++ (+++, >1000) | +++ (+++, >1000) | ++ (++, >100) | O=C1C[C@H](NC(=O)[C@H](CC2CCCC2)NC(=O)C2CC2)C(O)O1 (stereo partly drawn) [Example 19, (3S)-(3-Cyclopentyl-(2S)-(cyclopropylcarbonylamino)-propionylamino)-4-oxo-butyric acid] |
